Consider 3 molecules from ChEMBL document CHEMBL5715954, “Silencing c-Myc translation as a therapeutic strategy through targeting PI3Kδ and CK1ε in hematological malignancies” (Blood, 2017).

The structures appear in SMILES notation.

Holding throughout (parameters): scale not given: the % may be the effect or the level left
Experiment [1] deals with T1, Serine/threonine-protein kinase BRSK2 (Homo sapiens) (UniProt Q8IWQ3).
T1 sequence (whole entry): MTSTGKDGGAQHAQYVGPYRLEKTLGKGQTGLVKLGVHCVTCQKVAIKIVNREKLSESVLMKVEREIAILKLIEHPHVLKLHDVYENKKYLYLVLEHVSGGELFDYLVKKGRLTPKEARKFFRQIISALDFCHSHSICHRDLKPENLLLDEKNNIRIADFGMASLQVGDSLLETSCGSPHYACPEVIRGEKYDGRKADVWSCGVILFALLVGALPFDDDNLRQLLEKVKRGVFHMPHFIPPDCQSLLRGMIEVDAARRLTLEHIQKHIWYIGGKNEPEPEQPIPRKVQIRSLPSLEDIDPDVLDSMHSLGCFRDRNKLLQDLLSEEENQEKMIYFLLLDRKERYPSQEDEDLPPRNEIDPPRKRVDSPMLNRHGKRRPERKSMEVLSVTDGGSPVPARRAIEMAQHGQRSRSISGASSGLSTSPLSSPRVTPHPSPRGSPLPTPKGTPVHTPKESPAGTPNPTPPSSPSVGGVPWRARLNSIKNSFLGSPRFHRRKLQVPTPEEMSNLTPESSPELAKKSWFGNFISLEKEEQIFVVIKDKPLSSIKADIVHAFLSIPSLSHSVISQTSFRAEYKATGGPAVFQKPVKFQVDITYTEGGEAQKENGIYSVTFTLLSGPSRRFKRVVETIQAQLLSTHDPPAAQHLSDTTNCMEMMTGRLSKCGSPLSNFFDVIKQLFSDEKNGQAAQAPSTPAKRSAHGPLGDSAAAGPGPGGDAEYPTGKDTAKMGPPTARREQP
Put plainly: Inhibition of human BRSK2 assessed as enzyme activity at 1 uM using KKLNRTLSFAEPG as substrate preincubated for 20 mins followed by [gamma-33P]-ATP addition and measured after 120 mins by radiometric Hot-SpotSM Kinase assay relative to control.

Experiment [2] has as its target T2, Ephrin type-A receptor 8 (Homo sapiens) (UniProt P29322).
T2 sequence (whole entry): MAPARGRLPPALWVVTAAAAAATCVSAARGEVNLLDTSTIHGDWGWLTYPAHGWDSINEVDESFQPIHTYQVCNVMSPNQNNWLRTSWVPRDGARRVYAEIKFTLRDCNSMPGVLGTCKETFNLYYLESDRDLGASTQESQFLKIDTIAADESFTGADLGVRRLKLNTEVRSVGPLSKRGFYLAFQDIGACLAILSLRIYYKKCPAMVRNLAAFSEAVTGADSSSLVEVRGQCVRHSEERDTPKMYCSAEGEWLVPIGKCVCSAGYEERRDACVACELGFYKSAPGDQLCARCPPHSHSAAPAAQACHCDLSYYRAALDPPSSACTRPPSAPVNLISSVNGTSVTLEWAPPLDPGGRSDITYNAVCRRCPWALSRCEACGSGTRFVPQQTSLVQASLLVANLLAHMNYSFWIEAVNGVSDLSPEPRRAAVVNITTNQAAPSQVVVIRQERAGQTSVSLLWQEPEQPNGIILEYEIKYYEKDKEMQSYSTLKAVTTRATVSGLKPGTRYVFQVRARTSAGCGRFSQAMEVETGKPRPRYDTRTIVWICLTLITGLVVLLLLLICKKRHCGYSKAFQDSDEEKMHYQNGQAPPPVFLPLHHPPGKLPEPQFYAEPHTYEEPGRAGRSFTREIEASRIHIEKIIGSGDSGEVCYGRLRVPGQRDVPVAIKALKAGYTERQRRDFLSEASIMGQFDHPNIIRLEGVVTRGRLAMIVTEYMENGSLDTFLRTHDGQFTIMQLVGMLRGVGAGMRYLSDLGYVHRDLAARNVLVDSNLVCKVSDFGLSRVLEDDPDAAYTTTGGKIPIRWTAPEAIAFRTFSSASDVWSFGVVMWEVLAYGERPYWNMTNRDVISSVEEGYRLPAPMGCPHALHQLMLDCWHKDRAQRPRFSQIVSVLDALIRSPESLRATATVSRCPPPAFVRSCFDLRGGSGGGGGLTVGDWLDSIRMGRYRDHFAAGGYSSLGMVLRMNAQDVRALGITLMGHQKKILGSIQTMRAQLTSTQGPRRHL
Put plainly: Inhibition of human EPHA8 assessed as enzyme activity at 1 uM using poly[Glu:Tyr] (4:1) as substrate preincubated for 20 mins followed by [gamma-33P]-ATP addition and measured after 120 mins by radiometric Hot-SpotSM Kinase assay relative to control.

Experiment [3] concerns the target MAP kinase-interacting serine/threonine-protein kinase 1 (Homo sapiens) (UniProt Q9BUB5). Put plainly: Inhibition of human MNK1 assessed as enzyme activity at 1 uM using myelin basic protein as substrate preincubated for 20 mins followed by [gamma-33P]-ATP addition and measured after 120 mins by radiometric Hot-SpotSM Kinase assay relative to control.
Experiment [4] addresses Ribosomal protein S6 kinase alpha-4 (Homo sapiens) (UniProt O75676). Put plainly: Inhibition of human MSK2 assessed as enzyme activity at 1 uM using GRPRTSSFAEG as substrate preincubated for 20 mins followed by [gamma-33P]-ATP addition and measured after 120 mins by radiometric Hot-SpotSM Kinase assay relative to control.
Experiment [5] has as its target T3, Serine/threonine-protein kinase Nek2 (Homo sapiens) (UniProt P51955).
T3 sequence (whole entry): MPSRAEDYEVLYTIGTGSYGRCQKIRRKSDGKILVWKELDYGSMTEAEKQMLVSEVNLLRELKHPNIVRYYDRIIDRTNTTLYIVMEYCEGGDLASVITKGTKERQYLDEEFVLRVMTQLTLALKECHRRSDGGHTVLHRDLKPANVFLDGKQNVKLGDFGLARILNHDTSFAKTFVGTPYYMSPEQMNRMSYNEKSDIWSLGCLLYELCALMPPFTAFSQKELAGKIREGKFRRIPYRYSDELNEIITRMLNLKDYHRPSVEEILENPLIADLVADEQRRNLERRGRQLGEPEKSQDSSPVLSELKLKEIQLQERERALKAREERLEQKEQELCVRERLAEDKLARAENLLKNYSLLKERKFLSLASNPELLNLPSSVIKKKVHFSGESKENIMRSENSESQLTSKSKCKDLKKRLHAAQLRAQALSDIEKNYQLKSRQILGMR
Put plainly: Inhibition of human NEK2 assessed as enzyme activity at 1 uM using myelin basic protein as substrate preincubated for 20 mins followed by [gamma-33P]-ATP addition and measured after 120 mins by radiometric Hot-SpotSM Kinase assay relative to control.

Experiment [6] deals with Serine/threonine-protein kinase Nek4 (Homo sapiens) (UniProt P51957). Put plainly: Inhibition of human NEK4 assessed as enzyme activity at 1 uM using myelin basic protein as substrate preincubated for 20 mins followed by [gamma-33P]-ATP addition and measured after 120 mins by radiometric Hot-SpotSM Kinase assay relative to control.
Chain of Serine/threonine-protein kinase Nek4 (Homo sapiens) (P51957 whole entry, looked up): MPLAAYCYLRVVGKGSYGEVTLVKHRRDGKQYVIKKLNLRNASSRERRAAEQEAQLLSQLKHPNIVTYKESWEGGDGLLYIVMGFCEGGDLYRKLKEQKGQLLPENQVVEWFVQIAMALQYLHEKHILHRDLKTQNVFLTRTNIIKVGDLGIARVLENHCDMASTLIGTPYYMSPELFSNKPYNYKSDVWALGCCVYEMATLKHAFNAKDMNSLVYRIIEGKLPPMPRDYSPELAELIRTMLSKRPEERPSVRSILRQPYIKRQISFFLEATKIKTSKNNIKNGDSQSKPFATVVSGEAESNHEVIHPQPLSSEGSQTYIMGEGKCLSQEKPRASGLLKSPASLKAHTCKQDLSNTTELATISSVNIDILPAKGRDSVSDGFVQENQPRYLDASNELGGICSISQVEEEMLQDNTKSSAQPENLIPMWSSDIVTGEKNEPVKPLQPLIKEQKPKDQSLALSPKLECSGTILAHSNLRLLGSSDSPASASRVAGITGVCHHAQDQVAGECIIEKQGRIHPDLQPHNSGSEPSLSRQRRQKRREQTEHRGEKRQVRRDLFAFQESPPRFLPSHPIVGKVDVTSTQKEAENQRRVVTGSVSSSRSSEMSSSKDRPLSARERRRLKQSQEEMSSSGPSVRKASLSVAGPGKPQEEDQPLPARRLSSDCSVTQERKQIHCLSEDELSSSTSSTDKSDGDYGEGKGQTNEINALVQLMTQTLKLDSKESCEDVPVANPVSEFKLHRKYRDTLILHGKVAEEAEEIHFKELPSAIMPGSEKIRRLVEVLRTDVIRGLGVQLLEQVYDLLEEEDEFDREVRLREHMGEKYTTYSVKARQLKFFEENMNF
Experiment [7] addresses Non-receptor tyrosine-protein kinase TYK2 (Homo sapiens) (UniProt P29597). Put plainly: Inhibition of human TYK2 assessed as enzyme activity at 1 uM using KKSRGDYMTMQIG as substrate preincubated for 20 mins followed by [gamma-33P]-ATP addition and measured after 120 mins by radiometric Hot-SpotSM Kinase assay relative to control.

Chain of Ribosomal protein S6 kinase alpha-4 (Homo sapiens) (O75676 whole entry, looked up): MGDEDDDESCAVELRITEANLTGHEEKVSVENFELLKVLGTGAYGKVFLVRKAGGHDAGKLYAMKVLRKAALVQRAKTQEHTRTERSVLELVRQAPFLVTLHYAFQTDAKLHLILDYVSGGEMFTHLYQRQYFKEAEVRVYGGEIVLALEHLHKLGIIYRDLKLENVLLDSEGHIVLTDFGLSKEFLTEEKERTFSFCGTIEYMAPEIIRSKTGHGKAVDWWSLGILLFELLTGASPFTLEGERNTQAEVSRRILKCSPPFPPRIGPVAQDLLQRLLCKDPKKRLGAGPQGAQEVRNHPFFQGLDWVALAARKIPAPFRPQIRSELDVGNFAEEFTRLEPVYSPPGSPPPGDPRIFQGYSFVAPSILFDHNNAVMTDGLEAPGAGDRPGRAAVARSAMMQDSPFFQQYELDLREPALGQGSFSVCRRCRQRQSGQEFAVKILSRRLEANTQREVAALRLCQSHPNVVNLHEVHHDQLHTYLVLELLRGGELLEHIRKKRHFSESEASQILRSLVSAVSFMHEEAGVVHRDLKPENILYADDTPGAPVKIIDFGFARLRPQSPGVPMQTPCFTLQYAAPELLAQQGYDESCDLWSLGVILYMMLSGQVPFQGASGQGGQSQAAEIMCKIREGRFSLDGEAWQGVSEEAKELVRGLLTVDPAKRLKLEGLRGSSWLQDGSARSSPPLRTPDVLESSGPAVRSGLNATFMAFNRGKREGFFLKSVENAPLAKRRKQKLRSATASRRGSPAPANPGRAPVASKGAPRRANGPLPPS
Chain of MAP kinase-interacting serine/threonine-protein kinase 1 (Homo sapiens) (Q9BUB5 whole entry, looked up): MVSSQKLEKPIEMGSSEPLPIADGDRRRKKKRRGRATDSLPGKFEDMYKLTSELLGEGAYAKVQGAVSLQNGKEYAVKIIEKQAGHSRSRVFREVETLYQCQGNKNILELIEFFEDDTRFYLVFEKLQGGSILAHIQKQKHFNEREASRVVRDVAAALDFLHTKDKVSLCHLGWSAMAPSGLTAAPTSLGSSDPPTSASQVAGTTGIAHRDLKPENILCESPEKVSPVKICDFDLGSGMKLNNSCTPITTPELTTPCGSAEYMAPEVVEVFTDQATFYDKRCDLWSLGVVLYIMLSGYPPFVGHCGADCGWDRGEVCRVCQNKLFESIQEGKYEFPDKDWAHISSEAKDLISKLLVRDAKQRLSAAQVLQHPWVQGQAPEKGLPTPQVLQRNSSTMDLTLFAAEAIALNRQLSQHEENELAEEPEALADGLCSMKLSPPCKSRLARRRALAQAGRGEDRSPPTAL
Chain of Non-receptor tyrosine-protein kinase TYK2 (Homo sapiens) (P29597 whole entry): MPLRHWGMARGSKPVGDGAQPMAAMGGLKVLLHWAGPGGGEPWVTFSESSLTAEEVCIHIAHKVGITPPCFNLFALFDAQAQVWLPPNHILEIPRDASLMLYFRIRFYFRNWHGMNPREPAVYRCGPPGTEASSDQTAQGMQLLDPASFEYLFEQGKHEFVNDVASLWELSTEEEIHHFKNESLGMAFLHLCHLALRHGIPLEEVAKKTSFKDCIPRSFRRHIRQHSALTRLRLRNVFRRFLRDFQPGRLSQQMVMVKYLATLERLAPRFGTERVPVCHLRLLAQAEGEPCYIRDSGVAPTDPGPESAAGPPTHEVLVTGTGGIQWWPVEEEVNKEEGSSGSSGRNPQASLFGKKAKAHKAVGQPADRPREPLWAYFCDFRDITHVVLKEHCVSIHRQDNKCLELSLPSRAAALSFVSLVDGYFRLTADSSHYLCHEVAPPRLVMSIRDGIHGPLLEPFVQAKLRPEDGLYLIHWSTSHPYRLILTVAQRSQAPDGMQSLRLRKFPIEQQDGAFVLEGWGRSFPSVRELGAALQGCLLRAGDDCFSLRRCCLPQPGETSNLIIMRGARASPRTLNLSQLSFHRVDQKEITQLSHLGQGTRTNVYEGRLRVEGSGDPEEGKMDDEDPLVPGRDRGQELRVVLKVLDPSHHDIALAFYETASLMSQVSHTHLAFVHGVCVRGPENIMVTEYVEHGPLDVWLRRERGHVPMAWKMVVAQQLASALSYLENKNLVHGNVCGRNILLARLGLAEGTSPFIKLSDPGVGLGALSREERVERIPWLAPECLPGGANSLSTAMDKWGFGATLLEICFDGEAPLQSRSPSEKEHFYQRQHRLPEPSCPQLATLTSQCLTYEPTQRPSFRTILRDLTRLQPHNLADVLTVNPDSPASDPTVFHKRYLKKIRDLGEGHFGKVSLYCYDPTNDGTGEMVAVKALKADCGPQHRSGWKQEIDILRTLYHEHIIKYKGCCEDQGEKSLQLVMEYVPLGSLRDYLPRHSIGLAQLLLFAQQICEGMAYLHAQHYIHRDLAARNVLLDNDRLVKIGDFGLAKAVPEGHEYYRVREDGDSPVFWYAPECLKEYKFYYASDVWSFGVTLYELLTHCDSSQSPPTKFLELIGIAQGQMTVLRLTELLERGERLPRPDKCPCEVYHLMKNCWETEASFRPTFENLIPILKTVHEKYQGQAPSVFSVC

With `C[C@H](Nc1ncnc2nc[nH]c12)c1cc2cccc(Cl)c2c(=O)n1-c1ccccc1`, the Activity was 95.1% in experiment [1]; 99.1% in experiment [2]; 93.5% in experiment [3]; 98.8% in experiment [4]; 110% in experiment [5]; 92.2% in experiment [6]. For the same molecule, the Activity in experiment [7] stood at 96.3%.

As for `CC[C@H](Nc1ncnc2[nH]cnc12)c1nc2cccc(F)c2c(=O)n1-c1ccccc1`, the Activity in experiment [1] is 98.9%; in experiment [2] it was 97.6%; in experiment [3], 96.3%; in experiment [4], 98.1%; in experiment [5] it was 98%; in experiment [6] it was 95.5%. Also, in experiment [7], the Activity is 96.6%.

On to `CC(C)Oc1ccc(-c2nn([C@@H](C)c3oc4ccc(F)cc4c(=O)c3-c3cccc(F)c3)c3ncnc(N)c23)cc1F` [UMBRALISIB], for which the Activity in experiment [1] came out at 99.1%; in experiment [2] it was 95.8%; in experiment [3], 92%; in experiment [4], 94.2%; in experiment [5], 101%; in experiment [6], 87.8%. In experiment [7], the Activity turned out to be 102%.
